Results: patent publication US9533977B2, “Oxazolidinone derivative as CETP inhibitor, its preparation method, and pharmaceutical composition comprising the same” (DONG-A ST CO., LTD., priority 2013, dated 2017)
Like-named read-outs stand apart in the source and are kept apart here.

Key:
[1] = target: T1, CETP (Homo sapiens, UniProt P11597); assay: Inhibitory activity against CETP in human plasma (Roar CETP activity kit, fluorescence); format: biochemical; conditions: plasma from healthy men diluted 1:10 in assay buffer, 37° C., 3 hrs, fluorescence 465/535 nm; read-out: IC50, Inhibition of CETP Activity in Human Plasma
T1 construct: from tissue; host or cells: human plasma from healthy men
T1 sequence (P11597 18-493): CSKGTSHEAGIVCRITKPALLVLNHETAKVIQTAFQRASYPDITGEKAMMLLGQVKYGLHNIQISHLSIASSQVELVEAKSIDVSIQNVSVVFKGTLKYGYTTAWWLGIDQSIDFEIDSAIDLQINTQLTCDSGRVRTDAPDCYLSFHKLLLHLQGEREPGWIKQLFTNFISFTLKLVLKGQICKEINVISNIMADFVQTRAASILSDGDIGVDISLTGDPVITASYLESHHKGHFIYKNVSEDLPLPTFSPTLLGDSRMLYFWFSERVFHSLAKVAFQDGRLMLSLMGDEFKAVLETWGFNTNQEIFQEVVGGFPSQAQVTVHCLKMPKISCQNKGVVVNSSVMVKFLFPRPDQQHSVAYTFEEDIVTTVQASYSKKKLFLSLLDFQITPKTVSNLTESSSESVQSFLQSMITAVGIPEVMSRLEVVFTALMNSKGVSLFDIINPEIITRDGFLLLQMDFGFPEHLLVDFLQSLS
How it was run: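 Healthy male human plasma, diluted 1:10, incubated 3 hrs at 37° C with donor/acceptor fluorescent substrates and compound (0.01–10000 nM, DMSO). Fluorescence at ex 465/em 535 nm, background-corrected against no-plasma and no-compound wells; IC50 from sigmoidal fit.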

[2] = system: CETP; assay: Effect on CETP activity in hamster administered with single dose; format: in vivo, Golden Syrian hamsters; conditions: hamsters, single oral dose 100 mg/kg, blood 0.5-24 hrs after administration, compared to pre-treatment
Description: Each of the compounds of the Examples was orally administered at a dose of 100 mg/kg to three 7-week-old male Golden Syrian hamsters per group. Blood samples were taken from the retro-orbital plexus before administration and 0.5, 1, 2, 4, 6, 8, and 24 hrs after administration, and measured for blood CETP activity using a Roar CETP activity assay kit (Cat#: RB-CETP, Roar Biomedical Inc.).

[3] = system: Blood HDL-C; assay: Blood HDL-C level in multi-dosed hamsters; format: in vivo, Golden Syrian Hamsters; conditions: oral 10 mg/kg every day for two weeks, blood two hours after the final administration
Description: (§1) Each of the compounds of Examples 58, 96, 103 and 125 was orally administered at a dose of 10 mg/kg to 10 7-week-old male Golden Syrian Hamsters per group, every day for two weeks. Two hours after the final administration, blood samples were taken from the hamsters which then underwent an autopsy to analyze blood lipid levels and drug concentrations in blood and tissues (adipose tissues and liver)

[4] = Drug concentration in blood and tissues of hamsters administered with multiple doses; format: in vivo, Golden Syrian Hamsters; conditions: oral 10 mg/kg every day for two weeks; for concentration at 2 h: male, Golden Syrian, hamster, two hours after the final administration
Description: as §1

[5] = adipose tissue, read-out: Drug Concentration Adipose Tissue
[6] = blood, read-out: Drug Concentration Blood
[7] = liver, read-out: Drug Concentration Liver Tissue

| Structure (SMILES) | IC50 [1] [nM] | concentration at 2 h [4, 5] [ng/g] | concentration at 2 h [4, 6] [ng/mL] | concentration at 2 h [4, 7] [ng/g] | Relative Maximal Inhibition of CETP Activity to Pre-Administration (%) [2] [%] | Relative Increase HDL-C (%) to VC (Vehicle) [3] [%] | Distribution between blood, liver and adipose tissues (in words) [4] |
| --- | --- | --- | --- | --- | --- | --- | --- |
| CCCN(C[C@H]1CC[C@H](CC(=O)O)CC1)c1ncc(N2CCCC2)nc1CN1C(=O)OC(c2cc(C(F)(F)F)cc(C(F)(F)F)c2)[C@@H]1C (stereo partly drawn) [Example 124] | 7.13 |  |  |  | 52 |  |  |
| CCN(c1ncc(N2CCCC2C)cc1CN1C(=O)O[C@H](c2cc(C(F)(F)F)cc(C(F)(F)F)c2)[C@@H]1C)C1CCCCC1 (stereo partly drawn) [Example 89, (4S,5R)-5-[3,5-bis(trifluoromethyl)phenyl]-4-methyl-3-({[2-(ethyl)(cyclohexyl)amino]-5-(2-methyl-pyrrolidin-1-yl)pyridin-3-yl}methyl)-oxazolidin-2-one] | 7 |  |  |  | 53 |  |  |
| CCN(c1ncc(-c2cccn2C)cc1CN1C(=O)O[C@H](c2cc(C(F)(F)F)cc(C(F)(F)F)c2)[C@@H]1C)C1CCCCC1 [Example 56, (4S,5R)-5-[3,5-bis(trifluoromethyl)phenyl]-4-methyl-3-({[2-(ethyl)(cyclohexyl-4-yl)amino]-5-(1-methyl-1H-pyrrol-2-yl)pyridin-3-yl}methyl) oxazolidin-2-one] | 10.9 |  |  |  | 49 |  |  |
| CCN(c1ncc(N2CCCC2)cc1CN1C(=O)O[C@H](c2cc(C(F)(F)F)cc(C(F)(F)F)c2)[C@@H]1C)C1CCCCC1 [Example 88, (4S,5R)-5-[3,5-bis(trifluoromethyl)phenyl]-4-methyl-3-({[2-(ethyl)(cyclohexyl)amino]-5-(pyrrolidin-1-yl)pyridin-3-yl}methyl)-oxazolidin-2-one] | 10.7 |  |  |  | 45 |  |  |
| CCCN(CC1CCC(CC(=O)O)CC1)c1ncc(C2CC2)nc1CN1C(=O)OC(c2cc(C(F)(F)F)cc(C(F)(F)F)c2)C1C (stereo not drawn) [Example 125] | 40.3 |  |  |  | 56 | 27 |  |
| CCN(c1ncc(-c2cccn2C)cc1CN1C(=O)O[C@H](c2cc(C(F)(F)F)cc(C(F)(F)F)c2)[C@@H]1C)C1CCOCC1 [Example 50, (4S,5R)-5-[3,5-bis(trifluoromethyl)phenyl]-4-methyl-3-({[2-(ethyl)(tetrahydro-2H-pyran-4-yl)amino]-5-(1-methyl-1H-pyrrol-2-yl)pyridin-3-yl}methyl)-oxazolidin-2-one] | 11.1 |  |  |  | 57 |  |  |
| CCN(c1ncc(-c2csnc2C)cc1CN1C(=O)O[C@H](c2cc(C(F)(F)F)cc(C(F)(F)F)c2)[C@@H]1C)C1CCCCC1 [Example 87, (4S,5R)-5-[3,5-bis(trifluoromethyl)phenyl]-4-methyl-3-({[2-(ethyl)(cyclohexyl)amino]-5-(3-methyl-isothioxazol-4-yl)pyridin-3-yl}methyl)-oxazolidin-2-one] | 5.6 |  |  |  | 59 |  |  |
| CCN(c1ncc(N2CCC(F)(F)C2)cc1CN1C(=O)O[C@H](c2cc(C(F)(F)F)cc(C(F)(F)F)c2)[C@@H]1C)C1CCCCC1 [Example 91, (4S,5R)-5-[3,5-bis(trifluoromethyl)phenyl]-4-methyl-3-({[2-(ethyl)(cyclohexyl)amino]-5-(3,3-difluoro-pyrrolidin-1-yl)pyridin-3-yl}methyl)-oxazolidin-2-one] | 26.7 |  |  |  |  |  |  |
| CCN(c1ncc(N2CCC2)cc1CN1C(=O)O[C@H](c2cc(C(F)(F)F)cc(C(F)(F)F)c2)[C@@H]1C)C1CCOCC1 [Example 43, (4S,5R)-5-[3,5-bis(trifluoromethyl)phenyl]-4-methyl-3-({[2-(ethyl)(tetrahydro-2H-pyran-4-yl)amino]-5-(azetidin-1-yl)pyridin-3-yl}methyl)-oxazolidin-2-one] | 7.9 |  |  |  |  |  |  |
| CCN(CC1CCCC1)c1ncc(-c2c(C)noc2C)nc1CN1C(=O)O[C@H](c2cc(C(F)(F)F)cc(C(F)(F)F)c2)[C@@H]1C [Example 101, (4S,5R)-5-[3,5-bis(trifluoromethyl)phenyl]-3-({[3-(cyclopentylmethyl)(ethyl)amino]-4-methyl 6-(3,5-dimethylisoxazol-4-yl)pyrazin-3-yl}methyl)-oxazolidin-2-one] | 3.45 |  |  |  |  |  |  |

Now those with a lower IC50 [1], led by results:

| IC50 [1] [nM] | concentration at 2 h [4, 5] [ng/g] | concentration at 2 h [4, 6] [ng/mL] | concentration at 2 h [4, 7] [ng/g] | Structure (SMILES) | Relative Maximal Inhibition of CETP Activity to Pre-Administration (%) [2] [%] | Relative Increase HDL-C (%) to VC (Vehicle) [3] [%] | Distribution between blood, liver and adipose tissues (in words) [4] |
| --- | --- | --- | --- | --- | --- | --- | --- |
| 3.26 |  |  |  | CCN(C[C@H]1CC[C@H](CC(=O)O)CC1)c1ncc(N2CCCC2)nc1CN1C(=O)OC(c2cc(C(F)(F)F)cc(C(F)(F)F)c2)[C@@H]1C (stereo partly drawn) [Example 103] | 52 | 47 |  |
| 2.7 | 10200 | 606 | 415 | CCN(c1ncc(-c2c(C)noc2C)cc1CN1C(=O)O[C@H](c2cc(C(F)(F)F)cc(C(F)(F)F)c2)[C@@H]1C)C1CCCCC1 [Example 58, (4S,5R)-5-[3,5-bis(trifluoromethyl)phenyl]-4-methyl-3-({[2-(ethyl)(cyclohexyl)amino]-5-(3,5-dimethylisoxazol-4-yl)pyridin-3-yl}methyl)-oxazoliclin-2-one] | 55 | 47 | at low levels in blood and liver tissues, but at high levels in adipose tissues |
| 2.1 |  |  |  | CCN(c1ncc(-c2ccsc2)cc1CN1C(=O)O[C@H](c2cc(C(F)(F)F)cc(C(F)(F)F)c2)[C@@H]1C)C1CCCCC1 [Example 77, (4S,5R)-5-[3,5-bis(trifluoromethyl)phenyl]-4-methyl-3-({[2-(ethyl)(cyclohexyl)amino]-5-(thiophen-3-yl)pyridin-3-yl}methyl)-oxazolidin-2-one] | 50 |  |  |
| 2 | 7900 | 309 | 128 | CCN(c1ncc(-c2c(C)noc2C)nc1CN1C(=O)O[C@H](c2cc(C(F)(F)F)cc(C(F)(F)F)c2)[C@@H]1C)C1CCCCC1 [Example 96, (4S,5R)-5-[3,5-bis(trifluoromethyl)phenyl]-4-methyl-3-({[2-(ethyl)(cyclohexyl)amino]-5-(3,5-dimethyl-isoxazol-4-yl)pyrazin-3-yl}methyl)-oxazolidin-2-one] | 56 | 48 | at low levels in blood and liver tissues, but at high levels in adipose tissues |
| 0.8 |  |  |  | CCN(CC1CCC(CC(=O)O)CC1)c1ncc(-c2ccsc2)nc1CN1C(=O)OC(c2cc(C(F)(F)F)cc(C(F)(F)F)c2)C1C [Example 105, trans-4-({[3-({(4S,5S)-5-[3,5-bis(trifluoromethyl)phenyl]-4-methyl-2-oxazolidin-3-yl}methyl)-5-(thiophen-3-yl)pyrazin-2-yl]{[N-(ethyl)aminomethyl]cyclohexyl)}acetic acid] | 72 |  |  |
